≈ marks a conversion by molar mass, not a printed value. Where “and” joins values, the source holds several entries; their conditions need not be identical. Identical values can stand only once. Like-named read-outs stand apart in the source and are kept apart here.
Tests used:
[1] = tested on: intracellular MRSA 12673 strain in HEK293 cells; test: Intracellular antimicrobial (infection) assay; type: cell-based, Staphylococcus aureus
Procedure: HEK293 (human embryonic kidney) cells were purchased form Cell Line Services (Germany). The cells were cultured in Dulbecco’s Modified Eagle’s (DMEM) medium with 4.5 g/l glucose (Sigma-Aldrich, Germany), supplemented with 10% fetal bovine serum (FBS, Sigma-Aldrich, Germany) and 1% PEN/STREP (Sigma-Aldrich, Germany). Cells were maintained in a 5% CO2 incubator at 37 °C. The original lines were checked for the presence of mycoplasma.
HEK293 cells were seeded at a density of 1.5 × 10^5 cells/well in 24-well plates in an antibiotic-free medium (DMEM + 10% FBS) and were allowed to adhere overnight. Next, the medium was removed and overnight culture of S. aureus strain (12673) suspended in DMEM + 1% FBS (invasive medium) at a ratio of bacteria/cells 25:1 was added. To enable bacterial invasion, the cells were incubated with bacterial suspensions (37 °C, 5% CO2) for 2 h.
After this period of time extracellular bacteria were eliminated by a 30 min incubation with 20 U/ml lysostaphin. […] The lysis of human cells was carried out with 0.2% Trition-X-100 (Sigma-Aldrich, Germany). The obtained cell lysates were serially diluted in PBS and plated on agar plates and CFU/ml was determined.
The results are presented as the percentage of S. aureus intracellular survival after treatment in comparison to that of non-treated cells (control). The assay was performed in triplicates.

[2] = Brain concentration by LC/MS after iv administration; type: in vivo, BALB/c male mice; conditions: iv tail vein, 60 mg/kg, 2 hours after administration, brain homogenate supernatant, UHPLC-ESI/MS SIM; Mean ± SD, ten mice; 60 mg/kg
Procedure: In vivo experiments were performed on BALB/c male mice weighing between 20 and 30 g (the mouse model is widely used for estimation of drug BBB penetration). The animals (obtained from TAZD-CBU) were kept in a 12-hour day and night cycle at room temperature (20–22 °C), humidity 55–56% and fed with a standard diet and water ad libitum for at least 1 week before the experiment. Body temperature and weight were recorded on a regular daily schedule. It is confirmed that all procedures were carried out according to the guidelines outlined by the European Community Council Directive 2010/63/EEC, and they were approved by the local Ethical Committee Resolution 26/2014 (Bydgoszcz, Poland).
The experiments in this section also involved the mouse model described above. […] Similarly to what was stated previously, the mice were sacrificed 2 hours after the administration of the compounds. Their brains were removed immediately from the cranium and weighed. Next, they were homogenized mechanically in the ice and frozen at −80 °C.
Each homogenized mouse brain was centrifuged at 15 000 × g for 10 min. The supernatant was diluted with deionised water (Millipore), filtered (PTFE 0.22 μm filter) and analyzed by UHPLC-ESI/MS with the use of Shimadzu Nexera X2 UHPCL chromatograph and Shimadzu LCMS-2020 mass detector. […]

[3] = tested on: bacterial strain not named; test: Raw data of the MIC measurement (absorbance); type: cell-based; conditions: concentration marked (MIC) in raw absorbance data
Procedure: The strains were grown in Mueller-Hinton broth (MH cation-adjusted, Becton Dickinson) or Brain Heart Infusion broth (BHI, Becton Dickinson), respectively. The cultivation was carried out in an aerobic atmosphere at 37 °C for 24 hours and, afterwards, the bacterial cultures were diluted in geometric progression with a proper broth. Next, 100 µl of each dilution was inoculated in an agar plate and incubated at 37 °C for 24 h. The next procedures included determination of Colony Forming Units (CFU)/ml and minimal inhibitory concentration (MIC) of the compounds in question. The latter procedure was carried out according to the microbroth dilution technique using 96-well plates. The MICs were evaluated by using the metabolic assay based on the resazurin dye. The assay was performed in triplicates.

[4] = tested on: S. aureus MRSA hetero-VISA 6347; test: microbe, parasite or virus in culture; type: cell-based, Staphylococcus aureus
Method in brief: (§1)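 MRSA strains (N315 reference; h-VISA 6347 clinical) and clinical E. faecium and E. faecalis were grown 24 h at 37 °C in cation-adjusted Mueller-Hinton or BHI broth, with CFU/ml determined. MIC was measured by broth microdilution with a resazurin metabolic read-out, in triplicate.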

S. aureus MRSA N315 = test: microbe, parasite or virus in culture; type: cell-based, Staphylococcus aureus
Method in brief: as §1

[5] = microbroth dilution, 96-well, resazurin, 37 °C, 24 h, mean ± SD, at least three independent experiments in triplicates, listed as Van-HCl
[6] = same test as μM value, mean ± SD

**Q.** Which “percentage of S. aureus intracellular survival” value ([1]; HEK293 infected 25:1 for 2 h, lysostaphin 20 U/ml 30 min, compound 25 µM for 24 h, CFU/ml of lysates vs non-treated cells, triplicates, Fig. 2) does the source give for `CN[C@H](CC(C)C)C(=O)N[C@H]1C(=O)N[C@@H](CC(N)=O)C(=O)N[C@H]2C(=O)N[C@H]3C(=O)N[C@H](C(=O)N[C@H](C(=O)O)c4cc(O)cc(O)c4-c4cc3ccc4O)[C@H](O)c3ccc(c(Cl)c3)Oc3cc2cc(c3O[C@@H]2O[C@H](CO)[C@@H](O)[C@H](O)[C@H]2O[C@H]2C[C@](C)(N)[C@H](O)[C@H](C)O2)Oc2ccc(cc2Cl)[C@H]1O` [Van, vancomycin, reference compound] here?
**A.** Its value is roughly 95%.

**Q.** What about the “intracellular MRSA killed (bacterial killing rate)” value ([1]; MRSA-infected HEK293 cells, 25 µM, 24 h) of the same molecule?
**A.** The value was 5%.

**Q.** What about the “Brain concentrations of Van” value [2] of the same molecule?
**A.** The value was 0.011 µM and 0.011 ± 0.002 µM.

**Q.** What about the MIC [3] of the same molecule?
**A.** The MIC was 3.13 µM (≈ 4.54 µg/mL).

**Q.** And the MIC ([4]; Staphylococcus aureus, 24 h, microbroth dilution, 96-well, resazurin, 37 °C, 24 h, mean ± SD, at least three independent experiments in triplicates, read-out: MIC)?
**A.** The MIC was 4.1 µM (≈ 5.94 µg/mL).

**Q.** And the MIC ([4]; Staphylococcus aureus, raw MIC, first block, test a, repetition 1, read-out: MIC1a)?
**A.** Its MIC is 4.07 µM (≈ 5.9 µg/mL).

**Q.** And the MIC ([4]; Staphylococcus aureus, raw MIC, first block, test a, repetition 2, read-out: MIC2a)?
**A.** The MIC was 4.07 µM (≈ 5.9 µg/mL).

**Q.** What about the MIC ([4]; Staphylococcus aureus, raw MIC, first block, test a, repetition 3, read-out: MIC3a) of the same molecule?
**A.** The MIC was 4.07 µM (≈ 5.9 µg/mL).

**Q.** What about the MIC ([4]; Staphylococcus aureus, raw MIC, first block, test b, repetition 1, read-out: MIC1b) of the same molecule?
**A.** Its MIC is 2.03 µM (≈ 2.94 µg/mL).

**Q.** What about the MIC ([4]; Staphylococcus aureus, raw MIC, first block, test b, repetition 2, read-out: MIC2b) of the same molecule?
**A.** The MIC was 4.07 µM (≈ 5.9 µg/mL).

**Q.** And the MIC ([4]; Staphylococcus aureus, raw MIC, first block, test b, repetition 3, read-out: MIC3b)?
**A.** Its MIC is 2.03 µM (≈ 2.94 µg/mL).

**Q.** And the MIC ([4]; Staphylococcus aureus, raw MIC, test a, repetition 1, read-out: MIC1a)?
**A.** The MIC was 6.05 µM (≈ 8.77 µg/mL).

**Q.** And the MIC ([4]; Staphylococcus aureus, raw MIC, test a, repetition 2, read-out: MIC2a)?
**A.** Its MIC is 6.05 µM (≈ 8.77 µg/mL).

**Q.** And the MIC ([4]; Staphylococcus aureus, raw MIC, test a, repetition 3, read-out: MIC3a)?
**A.** The MIC was 6.05 µM (≈ 8.77 µg/mL).

**Q.** What about the MIC ([4]; Staphylococcus aureus, raw MIC, test b, repetition 1, read-out: MIC1b) of the same molecule?
**A.** The MIC was 3.03 µM (≈ 4.39 µg/mL).

**Q.** And the MIC ([4]; Staphylococcus aureus, raw MIC, test b, repetition 2, read-out: MIC2b)?
**A.** The MIC was 6.05 µM (≈ 8.77 µg/mL).

**Q.** What about the MIC ([4]; Staphylococcus aureus, raw MIC, test b, repetition 3, read-out: MIC3b) of the same molecule?
**A.** Its MIC is 3.03 µM (≈ 4.39 µg/mL).

**Q.** What about the “MIC” value [4, 5] of the same molecule?
**A.** Its value is 4.1 ± 1.1 µM (≈ 5.94 µg/mL).

**Q.** And the “MIC in (μg/ml)” value [4, 6]?
**A.** The value was 6.1 ± 1.6 µg/mL (≈ 4.21 µM).

**Q.** And the MIC (S. aureus MRSA N315; Staphylococcus aureus, MRSA, 24 h, microbroth dilution, 96-well, resazurin, 37 °C, 24 h, mean ± SD, at least three independent experiments in triplicates, read-out: MIC)?
**A.** The MIC was 2 µM (≈ 2.9 µg/mL).

**Q.** What about the MIC (S. aureus MRSA N315; Staphylococcus aureus, MRSA, raw MIC, first block, test a, repetition 1, read-out: MIC1a) of the same molecule?
**A.** Its MIC is 2 µM (≈ 2.9 µg/mL).

**Q.** And the MIC (S. aureus MRSA N315; Staphylococcus aureus, MRSA, raw MIC, first block, test a, repetition 2, read-out: MIC2a)?
**A.** The MIC was 1 µM (≈ 1.45 µg/mL).

**Q.** And the MIC (S. aureus MRSA N315; Staphylococcus aureus, MRSA, raw MIC, first block, test a, repetition 3, read-out: MIC3a)?
**A.** Its MIC is 2 µM (≈ 2.9 µg/mL).

**Q.** What about the MIC (S. aureus MRSA N315; Staphylococcus aureus, MRSA, raw MIC, first block, test b, repetition 1, read-out: MIC1b) of the same molecule?
**A.** Its MIC is 2 µM (≈ 2.9 µg/mL).

**Q.** What about the MIC (S. aureus MRSA N315; Staphylococcus aureus, MRSA, raw MIC, first block, test b, repetition 2, read-out: MIC2b) of the same molecule?
**A.** The MIC was 2 µM (≈ 2.9 µg/mL).

**Q.** And the MIC (S. aureus MRSA N315; Staphylococcus aureus, MRSA, raw MIC, first block, test b, repetition 3, read-out: MIC3b)?
**A.** Its MIC is 1 µM (≈ 1.45 µg/mL).

**Q.** What about the MIC (S. aureus MRSA N315; Staphylococcus aureus, MRSA, raw MIC, test a, repetition 1, read-out: MIC1a) of the same molecule?
**A.** The MIC was 2.97 µM (≈ 4.3 µg/mL).

**Q.** What about the MIC (S. aureus MRSA N315; Staphylococcus aureus, MRSA, raw MIC, test a, repetition 2, read-out: MIC2a) of the same molecule?
**A.** The MIC was 1.49 µM (≈ 2.16 µg/mL).

**Q.** And the MIC (S. aureus MRSA N315; Staphylococcus aureus, MRSA, raw MIC, test a, repetition 3, read-out: MIC3a)?
**A.** Its MIC is 2.97 µM (≈ 4.3 µg/mL).

**Q.** And the MIC (S. aureus MRSA N315; Staphylococcus aureus, MRSA, raw MIC, test b, repetition 1, read-out: MIC1b)?
**A.** The MIC was 2.97 µM (≈ 4.3 µg/mL).

**Q.** And the MIC (S. aureus MRSA N315; Staphylococcus aureus, MRSA, raw MIC, test b, repetition 2, read-out: MIC2b)?
**A.** The MIC was 2.97 µM (≈ 4.3 µg/mL).

**Q.** And the MIC (S. aureus MRSA N315; Staphylococcus aureus, MRSA, raw MIC, test b, repetition 3, read-out: MIC3b)?
**A.** The MIC was 1.49 µM (≈ 2.16 µg/mL).

**Q.** What about the “MIC” value (S. aureus MRSA N315; [5]) of the same molecule?
**A.** Its value is 2.0 ± 0.5 µM (≈ 2.9 µg/mL).

**Q.** And the MIC (S. aureus MRSA N315; microbroth dilution, 96-well, resazurin, 37 °C, 24 h, mean ± SD, at least three independent experiments in triplicates, read-out: MIC)?
**A.** The MIC was 2 µM (≈ 2.9 µg/mL).

**Q.** What about the “MIC in (μg/ml)” value (S. aureus MRSA N315; [6]) of the same molecule?
**A.** Its value is 3.0 ± 0.7 µg/mL (≈ 2.07 µM).
